Experiments:
[1] = biological target: human A2a adenosine receptor (Homo sapiens (Human), UniProt P29274); assay: A2a receptor affinity radioligand binding assay ([3H] SCH58261, membranes from HEK293 or CHO cells); settings: unstarred values: radioligand binding
How it was run: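 Displacement of tritiated SCH58261 (working dilution 4 nM) from recombinant human A2a receptor membranes (HEK293 or CHO), 60 min at room temperature in Tris pH 7.4/MgCl2 buffer after 15–30 min compound preincubation. Scintillation counting after filtration; normalized percent effect fitted 4-parameter logistic for IC50.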

[2] = biological target: T1, human A2b adenosine receptor (Homo sapiens (Human), UniProt P29275); assay: A2B antagonism in cAMP cell-based assay (LANCE cAMP, HEK293 cells, 600 nM adenosine); settings: for IC50: values marked *: cAMP cell-based assay
T1 sequence (P29275 whole entry): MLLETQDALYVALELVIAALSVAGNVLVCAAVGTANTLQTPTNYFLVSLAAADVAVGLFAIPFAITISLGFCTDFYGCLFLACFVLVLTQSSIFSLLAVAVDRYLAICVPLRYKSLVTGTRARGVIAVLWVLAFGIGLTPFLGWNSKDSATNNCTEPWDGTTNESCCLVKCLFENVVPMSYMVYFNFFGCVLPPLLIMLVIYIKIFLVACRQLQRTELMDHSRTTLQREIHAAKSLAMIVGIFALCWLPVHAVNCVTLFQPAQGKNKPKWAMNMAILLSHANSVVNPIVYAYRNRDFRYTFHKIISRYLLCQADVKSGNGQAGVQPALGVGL
Protocol: Measurement of A2A and A2B Antagonism in cAMP Cell-Based Assay
All subsequent liquid additions were performed using a multichannel pipettor. […] After this time 5 μL of either 300 nM or 600 nM adenosine (Sigma Cat. No. A9251) for A2A and A2B respectively was added and incubated for 30 minutes at 37° C. and 5% CO2 in a humidified environment. At this time detection mix was prepared by combining the LANCE Eu-W8044 labeled streptavidin and. Biotin-cAMP in detection buffer according to the manufacturers protocol. […] Curve fitting of the percent effect data versus the log of compound concentration used a 4-parameter concentration response curve fitting algorithm to calculate IC50 values.

[3] = biological target: T1, human A2b adenosine receptor; assay: A2b radioligand filtration binding assay (tritiated proprietary A2b antagonist, HEK293 membranes); settings: for IC50: unstarred values: radioligand binding
How it was run: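 Displacement of a tritiated proprietary A2b antagonist from membranes of HEK293 cells recombinantly expressing human A2b receptor, measured by filtration and scintillation counting. Percent effect was normalized to total and non-specific binding and fitted with a 4-parameter logistic to give IC50.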

Chain of human A2a adenosine receptor (P29274 whole entry): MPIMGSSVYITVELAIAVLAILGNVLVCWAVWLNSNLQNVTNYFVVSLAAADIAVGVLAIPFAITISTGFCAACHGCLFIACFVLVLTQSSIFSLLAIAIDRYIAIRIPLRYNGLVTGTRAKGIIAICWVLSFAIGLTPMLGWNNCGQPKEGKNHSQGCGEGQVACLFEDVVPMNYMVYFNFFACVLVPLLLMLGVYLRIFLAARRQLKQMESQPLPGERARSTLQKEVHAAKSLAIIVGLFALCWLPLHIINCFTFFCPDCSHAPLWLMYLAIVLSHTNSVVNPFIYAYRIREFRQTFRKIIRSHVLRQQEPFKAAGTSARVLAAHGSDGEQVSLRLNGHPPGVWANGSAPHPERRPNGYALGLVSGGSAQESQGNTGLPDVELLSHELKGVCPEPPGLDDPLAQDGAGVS

Structure (SMILES) | IC50 [1] [nM] | IC50 [2] [nM] | *A2B cAMP ^ % @ 10000 nM ([2]; @ 10000 nM, marked *, printed with ^ and without inh.) [% @ 10000 nM*] | IC50 [3] [nM] | A2B binding % inh. @ 10000 nM ([3]; @ 10000 nM, unstarred) [% inh. @ 10000 nM]
Cn1cc(N2CCCC(c3nc4c5cccc(F)c5nc(N)n4n3)C2)cn1 (single isomer, unassigned) [Example 131A, (R or S)-7-fluoro-2-(1-(1-methyl-1H-pyrazol-4-yl)piperidin-3-yl)-[1,2,4]triazolo[1,5-c]quinazolin-5-amine] | 34 | 1680 |  |  | 
Cn1cc(N2CCCC(c3nc4c5cccc(F)c5nc(N)n4n3)C2)cn1 (single isomer, unassigned) [Example 131B, (S or R)-7-fluoro-2-(1-(1-methyl-1H-pyrazol-4-yl)piperidin-3-yl)-[1,2,4]triazolo[1,5-c]quinazolin-5-amine] | 9.3 | 121 |  |  | 
Cn1cc(N2CCCC(c3nc4c5cccc(Cl)c5nc(N)n4n3)C2)cn1 (single isomer, unassigned) [Example 132A] | 18.6 |  | 31 |  | 
Cn1cc(N2CCCC(c3nc4c5cccc(Cl)c5nc(N)n4n3)C2)cn1 (single isomer, unassigned) [Example 132B] | 3.9 | 205 |  |  | 
COc1cccc2c1nc(N)n1nc(C3CCC(C)N(c4cnn(C5CC5)c4)C3)nc21 (single isomer, unassigned) [Example 141B] | 28.2 | 2610 |  |  | 
COc1cccc2c1nc(N)n1nc(C3CCC(C)N(c4cnn(CC(F)(F)F)c4)C3)nc21 (single isomer, unassigned) [Example 142A, 7-methoxy-2-((3S,6S or 3R,6R)-6-methyl-1-(1-(2,2,2-trifluoroethyl)-1H-pyrazol-4-yl)piperidin-3-yl)-[1,2,4]triazolo[1,5-c]quinazolin-5-amine] | 53.8 | 985 |  |  | 
COc1cccc2c1nc(N)n1nc(C3CCC(C)N(c4cnn(CC(C)(C)O)c4)C3)nc21 (single isomer, unassigned) [Example 143C] | 31.6 | 651 |  |  | 
COc1ccc2c(c1)nc(N)n1nc([C@H]3C[C@H](C)CN(c4cnn(CC(C)(C)O)c4)C3)nc21 [Example 195C] | 281 |  |  | 9440 | 
COc1ccc2c(c1)nc(N)n1nc([C@H]3C[C@@H](F)CN(c4cn(CC(C)(C)O)nc4C)C3)nc21 [Example 197A, 1-(4-((3S,5R)-3-(5-amino-8-methoxy-[1,2,4]triazolo[1,5-c]quinazolin-2-yl)-5-fluoropiperidin-1-yl)-3-methyl-1H-pyrazol-1-yl)-2-methylpropan-2-ol] | 99 |  |  |  | 31
C[C@H]1CC[C@@H](c2nc3c4ccc(C#N)cc4nc(N)n3n2)CN1c1cnn(CC(C)(C)O)c1 [Example 202, 5-amino-2-((3R,6S)-1-(1-(2-hydroxy-2-methylpropyl)-1H-pyrazol-4-yl)-6-methylpiperidin-3-yl)-[1,2,4]triazolo[1,5-c]quinazoline-8-carbonitrile] | 4.2 |  |  | 211 | 
C[C@H]1CC[C@@H](c2nc3c4ccc(C5CCC5)cc4nc(N)n3n2)CN1c1cnn(CC(C)(C)O)c1 [Example 209, 1-(4-((2S,5R)-5-(5-amino-8-cyclobutyl-[1,2,4]triazolo[1,5-c]quinazolin-2-yl)-2-methylpiperidin-1-yl)-1H-pyrazol-1-yl)-2-methylpropan-2-ol] | 28.7 |  |  | 328 | 
COc1ccc2c(c1)nc(N)n1nc([C@H]3CC[C@@H](C)N(c4cnn([C@@H](C)C(C)(C)O)c4)C3)nc21 [Example 212A] | 221 |  |  | 5480 | 
COc1ccc2c(c1)nc(N)n1nc([C@H]3CC[C@@H](C)N(c4cnn([C@H](C)C(C)(C)O)c4)C3)nc21 [Example 212B, (R)--3-(4-((2R,5S)-5-(5-amino-8-methoxy-[1,2,4]triazolo[1,5-c]quinazolin-2-yl)-2-methylpiperidin-1-yl)-1H-pyrazol-1-yl)-2-methylbutan-2-ol] | 234 |  |  | 8280 | 
COc1ccc2c(c1)nc(N)n1nc(C3CCCCN(c4cnn(CC(C)(C)O)c4)C3)nc21 (stereo not drawn) [Example 217, 1-(4-(3-(5-amino-8-methoxy-[1,2,4]triazolo[1,5-c]quinazolin-2-yl)azepan-1-yl)-1H-pyrazol-1-yl)-2-methylpropan-2-ol] | 4.6 |  |  | 207 | 

Compounds with a lower IC50 [1], results first:

IC50 [1] [nM] | IC50 [2] [nM] | *A2B cAMP ^ % @ 10000 nM ([2]; @ 10000 nM, marked *, printed with ^ and without inh.) [% @ 10000 nM*] | IC50 [3] [nM] | A2B binding % inh. @ 10000 nM ([3]; @ 10000 nM, unstarred) [% inh. @ 10000 nM] | Structure (SMILES)
1.2 | 116 |  |  |  | Nc1nc2c(Cl)cccc2c2nc(C3CCCN(c4cnn(C5CC5)c4)C3)nn12 (racemic) [Example 133, rac-7-chloro-2-(1-(1-cyclopropyl-1H-pyrazol-4-yl)piperidin-3-yl)-[1,2,4]triazolo[1,5-c]pyquinazolin-5-amine]
2.2 | 712 |  |  |  | COc1cccc2c1nc(N)n1nc(C3CCC(C)N(c4cnn(C5CC5)c4)C3)nc21 (single isomer, unassigned) [Example 141A]
3.1 | 1650 |  |  |  | COc1cccc2c1nc(N)n1nc(C3CCC(C)N(c4cnn(C5CC5)c4)C3)nc21 (single isomer, unassigned) [Example 141D]
0.8 | 1150 |  |  |  | COc1cccc2c1nc(N)n1nc(C3CCC(C)N(c4cnn(CC(F)(F)F)c4)C3)nc21 (single isomer, unassigned) [Example 142B, 7-methoxy-2-((3R,6R or 3S,6S)-6-methyl-1-(1-(2,2,2-trifluoroethyl)-1H-pyrazol-4-yl)piperidin-3-yl)-[1,2,4]triazolo[1,5-c]quinazolin-5-amine]
0.9 | 9.3 |  |  |  | COc1cccc2c1nc(N)n1nc(C3CCC(C)N(c4cnn(CC(F)(F)F)c4)C3)nc21 (single isomer, unassigned) [Example 142D]
0.9 | 604 |  |  |  | COc1cccc2c1nc(N)n1nc(C3CCC(C)N(c4cnn(CC(C)(C)O)c4)C3)nc21 (single isomer, unassigned) [Example 143B, 1-(4-((2S,5S or 2R,5R)-5-(5-amino-7-methoxy-[1,2,4]triazolo[1,5-c]quinazolin-2-yl)-2-methylpiperidin-1-yl)-1H-pyrazol-1-yl)-2-methylpropan-2-ol]
1.2 | 4 |  |  |  | COc1cccc2c1nc(N)n1nc(C3CCC(C)N(c4cnn(CC5(O)CCC5)c4)C3)nc21 (single isomer, unassigned) [Example 144D]
2.9 |  |  | 802 |  | COc1ccc2c(c1)nc(N)n1nc([C@H]3C[C@@H](F)CN(c4cnn(CC(C)(C)O)c4)C3)nc21 [Example 196A]
0.4 |  |  | 1370 |  | COc1ccc2c(c1)nc(N)n1nc([C@@H]3C[C@H](F)CN(c4cn(CC(C)(C)O)nc4C)C3)nc21 [Example 197B, 1-(4-((3R,5S)-3-(5-amino-8-methoxy-[1,2,4]triazolo[1,5-c]quinazolin-2-yl)-5-fluoropiperidin-1-yl)-3-methyl-1H-pyrazol-1-yl)-2-methylpropan-2-ol]
2.8 |  |  | 10.6 |  | C[C@H]1CC[C@@H](c2nc3c4ccc(C(F)F)cc4nc(N)n3n2)CN1c1cnn(CC(C)(C)O)c1 [Example 201, 1-(4-((2S,5R)-5-(5-amino-8-(difluoromethyl)-[1,2,4]triazolo[1,5-c]quinazolin-2-yl)-2-methylpiperidin-1-yl)-1H-pyrazol-1-yl)-2-methylpropan-2-ol]
0.7 |  |  | 1.7 |  | C[C@H]1CC[C@@H](c2nc3c4ccc(Cl)cc4nc(N)n3n2)CN1c1cnn(CC(C)(C)O)c1 [Example 203, 1-(4-((2S,5R)-5-(5-amino-8-chloro-[1,2,4]triazolo[1,5-c]quinazolin-2-yl)-2-methylpiperidin-1-yl)-1H-pyrazol-1-yl)-2-methylpropan-2-ol]
0.4 |  |  | 1.1 |  | COc1ccc2c(c1)nc(N)n1nc([C@@H]3CC[C@H](C)N(c4cnn(CC(C)(C)O)c4)C3)nc21 [Example 204, 1-(4-((2S,5R)-5-(5-amino-8-methoxy-[1,2,4]triazolo[1,5-c]quinazolin-2-yl)-2-methylpiperidin-1-yl)-1H-pyrazol-1-yl)-2-methylpropan-2-ol]
2.8 |  |  | 125 |  | CCc1ccc2c(c1)nc(N)n1nc([C@@H]3CC[C@H](C)N(c4cnn(CC(C)(C)O)c4)C3)nc21 [Example 207, 1-(4-((2S,5R)-5-(5-amino-8-ethyl-[1,2,4]triazolo[1,5-c]quinazolin-2-yl)-2-methylpiperidin-1-yl)-1H-pyrazol-1-yl)-2-methylpropan-2-ol]
0.2 |  |  | 4.8 |  | COc1ccc2c(c1)nc(N)n1nc([C@@H]3CC[C@H](C)N(c4cnn(C5CCC[C@H]5O)c4)C3)nc21 (stereo partly drawn) [Example 210A]
0.5 |  |  | 3.4 |  | COc1ccc2c(c1)nc(N)n1nc([C@@H]3CC[C@H](C)N(c4cnn([C@@H](C)C(C)(C)O)c4)C3)nc21 [Example 211A, (S)-3-(4-((2S,5R)-5-(5-amino-8-methoxy-[1,2,4]triazolo[1,5-c]quinazolin-2-yl)-2-methylpiperidin-1-yl)-1H-pyrazol-1-yl)-2-methylbutan-2-ol]
0.6 |  |  | 16.1 |  | COc1ccc2c(c1)nc(N)n1nc([C@@H]3CC[C@H](C)N(c4cnn([C@H](C)C(C)(C)O)c4)C3)nc21 [Example 211B, (R)-3-(4-((2S,5R)-5-(5-amino-8-methoxy-[1,2,4]triazolo[1,5-c]quinazolin-2-yl)-2-methylpiperidin-1-yl)-1H-pyrazol-1-yl)-2-methylbutan-2-ol]

From patent US12263171B2, “7-, 8-, and 10-substituted amino triazolo quinazoline derivatives as adenosine receptor antagonists, pharmaceutical compositions and their use” (Merck Sharp & Dohme LLC, priority 2018, dated 2025)
